Data reported in BindingDB's records for patent US20230312550 (Astrazeneca, 2023).

Target: T1, Prolyl endopeptidase FAP (Homo sapiens, UniProt Q12884)
T1 sequence (Q12884 whole entry): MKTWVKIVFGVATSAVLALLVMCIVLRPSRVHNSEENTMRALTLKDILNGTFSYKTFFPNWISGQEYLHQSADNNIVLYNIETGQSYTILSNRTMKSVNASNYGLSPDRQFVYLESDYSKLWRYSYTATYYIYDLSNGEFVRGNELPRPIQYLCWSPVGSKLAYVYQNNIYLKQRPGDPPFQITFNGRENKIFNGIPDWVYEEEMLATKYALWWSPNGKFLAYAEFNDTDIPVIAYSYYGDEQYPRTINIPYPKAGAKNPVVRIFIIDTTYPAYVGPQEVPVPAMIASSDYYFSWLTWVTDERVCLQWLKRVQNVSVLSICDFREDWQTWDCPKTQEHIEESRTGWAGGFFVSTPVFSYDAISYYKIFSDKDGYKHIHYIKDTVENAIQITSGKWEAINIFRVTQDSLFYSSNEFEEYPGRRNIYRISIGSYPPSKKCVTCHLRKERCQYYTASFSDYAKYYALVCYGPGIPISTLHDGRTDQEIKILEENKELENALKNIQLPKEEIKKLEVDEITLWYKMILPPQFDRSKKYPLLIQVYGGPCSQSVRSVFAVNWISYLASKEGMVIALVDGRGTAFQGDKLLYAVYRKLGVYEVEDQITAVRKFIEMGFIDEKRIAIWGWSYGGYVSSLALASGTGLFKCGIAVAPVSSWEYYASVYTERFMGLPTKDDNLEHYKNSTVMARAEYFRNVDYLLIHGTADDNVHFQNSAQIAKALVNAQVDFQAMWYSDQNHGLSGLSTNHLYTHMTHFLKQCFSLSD
Experiment: hFAP Binding Assay
Settings: for kon: read-out: kon (M-1-s-1)
Protocol: Table 1: Compounds were tested in a direct binding assay using 8K surface plasmon resonance biosensor (GE Healthcare) at 20° C. Immobilization of hFAP (M39-A757) on a CMD200M sensor chip (Xantec) was performed using standard amine coupling procedure in immobilization buffer (10 mM HEPES, 150 mM NaCl, 0.05% Tween20, pH 7.4). The surface was washed with 10 mM NaOH, 1M NaCl before being activated with EDC/NHS (GE Healthcare), followed by immobilization of hFAP (in 10 mM Acetate pH 5.0). Finally, the surface was deactivated by ethanolamine. Immobilization levels of hFAP were around 4000-6000 RU. The reference spot was treated as described, omitting the injection of hFAP. Compound concentration series were injected over the immobilized protein in increasing concentrations (2-500 nM) using single cycle kinetics in running buffer (20 mM TRIS, 150 mM NaCl, 0.05% Tween20, 1% DMSO, pH 7.4).

Row | koff [s⁻¹] | kon [M⁻¹ s⁻¹] | koff (s-1) [s⁻¹] | Compound
1 | 0.00019 | 2.6e+06 |  | N#C[C@@H]1CSCN1C(=O)CNC(=O)c1ccnc2ccc(N3CCCC[C@@H](F)C3)cc12 [US20230312550, Example 59]
2 | 0.00017 | 1.7e+06 |  | N#C[C@@H]1CSCN1C(=O)CNC(=O)c1ccnc2ccc(N3CCCC[C@H](F)C3)cc12 [US20230312550, Example 60]
3 | 8.5e-05 | 710000 |  | C[C@H]1CCN(c2ccc3nccc(C(=O)NCC(=O)N4CSC[C@H]4C#N)c3c2)CCO1 [US20230312550, Example 62]
4 | 5.9e-05 | 4.1e+06 |  | C[C@H]1COCCCN1c1ccc2nccc(C(=O)NCC(=O)N3CSC[C@H]3C#N)c2c1 [US20230312550, Example 63]
5 | 0.00015 | 1.3e+06 |  | C[C@@H]1CN(c2ccc3nccc(C(=O)NCC(=O)N4CSC[C@H]4C#N)c3c2)CCCO1 [US20230312550, Example 64]
6 | 0.00047 | 6.7e+06 |  | C[C@H]1CCCN1c1ccc2nccc(C(=O)NCC(=O)N3CSC[C@H]3C#N)c2c1 [US20230312550, Example 65]
7 | 0.00022 | 2.6e+07 |  | COC1CN(c2ccc3nccc(C(=O)NCC(=O)N4CSC[C@H]4C#N)c3c2)C1 [US20230312550, Example 66]
8 | 0.00016 | 2.4e+06 |  | N#C[C@@H]1CSCN1C(=O)CNC(=O)c1ccnc2ccc(N3CCO[C@@H](C(F)(F)F)C3)cc12 [US20230312550, Example 73]
9 | 0.00016 | 1.1e+06 |  | N#C[C@@H]1CSCN1C(=O)CNC(=O)c1ccnc2ccc(N3CCO[C@H](C(F)(F)F)C3)cc12 [US20230312550, Example 74]
10 | 2.4e-05 | 2.3e+06 |  | N#C[C@@H]1CSCN1C(=O)CNC(=O)c1ccnc2ccc(N3C[C@@H]4C[C@H]3CO4)cc12 [US20230312550, Example 75]
11 | 5.2e-05 | 1e+06 |  | N#C[C@@H]1CSCN1C(=O)CNC(=O)c1ccnc2ccc(N3C[C@H]4C[C@@H]3CO4)cc12 [US20230312550, Example 76]
12 | 0.00012 | 1.6e+07 |  | N#C[C@@H]1CSCN1C(=O)CNC(=O)c1ccnc2ccc(N3CC4CCC(C3)O4)cc12 [US20230312550, Example 79]
13 | 0.00011 |  | 0.00011 | N#C[C@@H]1CSCN1C(=O)CNC(=O)c1ccnc2ccc(N3CCOC[C@@H]3C(F)(F)F)cc12 [US20230312550, Example 85]
14 | 0.00034 | 4.2e+06 |  | CC1(C)CN(c2ccc3nccc(C(=O)NCC(=O)N4CSC[C@H]4C#N)c3c2)CCO1 [US20230312550, Example 88]
15 | 0.0001 | 480000 |  | C[C@@H]1COC[C@H](C)N1c1ccc2nccc(C(=O)NCC(=O)N3CSC[C@H]3C#N)c2c1 [US20230312550, Example 90]
16 | 0.00011 | 2.2e+06 |  | CS(=O)(=O)C[C@H]1CN(c2ccc3nccc(C(=O)NCC(=O)N4CSC[C@H]4C#N)c3c2)CCO1 [US20230312550, Example 92]
17 | 8e-05 | 1.8e+06 |  | COC[C@@H]1CN(c2ccc3nccc(C(=O)NCC(=O)N4CSC[C@H]4C#N)c3c2)CCO1 [US20230312550, Example 93]
18 | 9.9e-05 | 1.9e+06 |  | CS(=O)(=O)C[C@@H]1CN(c2ccc3nccc(C(=O)NCC(=O)N4CSC[C@H]4C#N)c3c2)CCO1 [US20230312550, Example 94]
19 | 5.6e-05 | 2.9e+06 |  | COCC[C@@H]1COCCN1c1ccc2nccc(C(=O)NCC(=O)N3CSC[C@H]3C#N)c2c1 [US20230312550, Example 95]
20 | 0.00022 | 4e+06 |  | COC[C@H]1[C@H](C)OCCN1c1ccc2nccc(C(=O)NCC(=O)N3CSC[C@H]3C#N)c2c1 [US20230312550, Example 96]
21 | 7.6e-05 | 690000 |  | COC[C@@H]1[C@@H](C)OCCN1c1ccc2nccc(C(=O)NCC(=O)N3CSC[C@H]3C#N)c2c1 [US20230312550, Example 97]
22 | 0.0002 | 2.1e+06 |  | N#C[C@@H]1CSCN1C(=O)CNC(=O)c1ccnc2ccc(N3CCOC4(CCOCC4)C3)cc12 [US20230312550, Example 99]
23 | 0.0022 | 3e+06 |  | C[C@@H]1COC[C@H](C)N1c1cc2c(C(=O)NCC(=O)N3CSC[C@H]3C#N)ccnc2cc1Br [US20230312550, Example 100]
24 | 2.5e-05 | 740000 |  | N#C[C@@H]1CSCN1C(=O)CNC(=O)c1ccnc2ccc(N3CCOCC3)c(Cl)c12 [US20230312550, Example 101]

Row | koff [s⁻¹] | kon [M⁻¹ s⁻¹] | koff (s-1) [s⁻¹] | Compound
25 | 0.0001 | 3e+06 |  | C[C@H]1COC[C@H](C)N1c1ccc2nccc(C(=O)NCC(=O)N3CSC[C@H]3C#N)c2c1 [US20230312550, Example 103]
26 | 6.1e-05 | 3e+06 |  | N#C[C@@H]1CSCN1C(=O)CNC(=O)c1ccnc2ccc(N3CCOCC34CCC4)cc12 [US20230312550, Example 104]
27 | 6.8e-05 | 890000 |  | C[C@@H]1COC[C@@H](C)N1c1ccc2nccc(C(=O)NCC(=O)N3CSC[C@H]3C#N)c2c1 [US20230312550, Example 105]
28 | 0.00014 | 1.8e+06 |  | CC[C@H]1COCCN1c1ccc2nccc(C(=O)NCC(=O)N3CSC[C@H]3C#N)c2c1 [US20230312550, Example 106]
29 | 4.5e-05 | 1.5e+06 |  | N#C[C@@H]1CSCN1C(=O)CNC(=O)c1ccnc2ccc(N3CC(CF)C3)cc12 [US20230312550, Example 113]
30 | 0.0012 | 7.9e+06 |  | Cc1cc(C(F)(F)F)nn1-c1ccc2nccc(C(=O)NCC(=O)N3CSC[C@H]3C#N)c2c1 [US20230312550, Example 116]
31 | 0.00031 | 610000 |  | N#C[C@@H]1CSCN1C(=O)CNC(=O)c1ccnc2ccc(-n3ccc4c(F)cc(F)cc43)cc12 [US20230312550, Example 119]
32 | 1.6e-05 | 1.1e+06 |  | Cc1ccn(-c2ccc3nccc(C(=O)NCC(=O)N4CSC[C@H]4C#N)c3c2)c1 [US20230312550, Example 121]
33 | 4.3e-05 | 1.3e+06 |  | N#C[C@@H]1CSCN1C(=O)CNC(=O)c1ccnc2ccc(N3CC(N4CCOCC4)C3)cc12 [US20230312550, Example 122]
34 | 0.00042 | 3e+06 |  | CC1(C)Cc2c(-c3ccc4nccc(C(=O)NCC(=O)N5CSC[C@H]5C#N)c4c3)cnn2C1 [US20230312550, Example 123]
35 | 0.00028 | 3e+06 |  | N#C[C@@H]1CSCN1C(=O)CNC(=O)c1ccnc2ccc(-c3ccnc(F)c3)cc12 [US20230312550, Example 124]
36 | 0.00014 | 3e+06 |  | N#C[C@@H]1CSCN1C(=O)CNC(=O)c1ccnc2ccc(-c3ccc(F)cn3)cc12 [US20230312550, Example 125]
37 | 0.00021 | 1.8e+06 |  | N#C[C@@H]1CSCN1C(=O)CNC(=O)c1ccnc2ccc(-c3cccnc3)cc12 [US20230312550, Example 126]
38 | 0.002 | 6e+06 |  | N#C[C@@H]1CSCN1C(=O)CNC(=O)c1ccnc2ccc(-c3cncnc3)cc12 [US20230312550, Example 127]
39 | 0.00066 | 5.4e+06 |  | Cc1ncccc1-c1ccc2nccc(C(=O)NCC(=O)N3CSC[C@H]3C#N)c2c1 [US20230312550, Example 128]
40 | 0.00014 | 1.8e+06 |  | CC1(CC(F)(F)F)CN(c2ccc3nccc(C(=O)NCC(=O)N4CSC[C@H]4C#N)c3c2)C1 [US20230312550, Example 131]
41 | 0.00014 | 270000 |  | N#C[C@@H]1CSCN1C(=O)CNC(=O)c1ccnc2ccc(N3CC(OC(F)(F)F)C3)cc12 [US20230312550, Example 132]
42 | 7.3e-05 | 1.2e+06 |  | CC1(CC(F)F)CN(c2ccc3nccc(C(=O)NCC(=O)N4CSC[C@H]4C#N)c3c2)C1 [US20230312550, Example 133]
43 | 8e-05 | 620000 |  | CC1(C2CC2)CN(c2ccc3nccc(C(=O)NCC(=O)N4CSC[C@H]4C#N)c3c2)C1 [US20230312550, Example 134]
44 | 2.3e-05 | 1.7e+06 |  | CC1(C(F)F)CN(c2ccc3nccc(C(=O)NCC(=O)N4CSC[C@H]4C#N)c3c2)C1 [US20230312550, Example 135]
45 | 5e-05 | 2e+06 |  | N#C[C@@H]1CSCN1C(=O)CNC(=O)c1ccnc2ccc(N3CC(OC(F)F)C3)cc12 [US20230312550, Example 136]
46 | 9.8e-05 | 9.5e+06 |  | CCC1(C)CN(c2ccc3nccc(C(=O)NCC(=O)N4CSC[C@H]4C#N)c3c2)C1 [US20230312550, Example 137]
47 | 0.00016 | 2.6e+06 |  | CC(F)(F)CC1CN(c2ccc3nccc(C(=O)NCC(=O)N4CSC[C@H]4C#N)c3c2)C1 [US20230312550, Example 140]

Row | Compound | koff [s⁻¹] | kon [M⁻¹ s⁻¹] | koff (s-1) [s⁻¹]
48 | N#C[C@@H]1CSCN1C(=O)CNC(=O)c1ccnc2ccc(N3CC4CC(C3)O4)cc12 [US20230312550, Example 77] | 6.6e-05 | 4.8e+06 | 
49 | N#C[C@@H]1CSCN1C(=O)CNC(=O)c1ccnc2ccc(N3C4CCCC3COC4)cc12 [US20230312550, Example 86] | 5.8e-05 | 730000 | 
50 | N#C[C@@H]1CSCN1C(=O)CNC(=O)c1ccnc2ccc(N3C4CCC3COC4)cc12 [US20230312550, Example 98] | 1.5e-05 | 1.6e+06 | 
